This assay concerns C. subellipsoidea. The experiment in a line: Paraoxon hydrolysis in C. subellipsoidea cultures assayed by p-nitrophenol production (absorbance 408 nm). The conditions noted are these: for hydrolysis of paraoxon into p-nitrophenol with oligomycin and rotenone in the dark: oligomycin 20 μg/mL and rotenone 20 μg/mL together, samples at 12 h, 24 h, 48 h. Format: cell-based, Coccomyxa subellipsoidea.

SMILES strings stand for the structures.

As for `CN(C)C(=O)Nc1ccc(Cl)c(Cl)c1` [DCMU, 3-(3,4-dichlorophenyl)-1,1-dimethylurea], the “effect on paraoxon hydrolysis, DCMU and paraoxon in the light” value (actively growing cultures, light) is given as “blocked hydrolysis”. Also, the “production of p-nitrophenol from paraoxon in the presence of DCMU” value (paraoxon 0.25 mg/mL, 12 h, light, versus absence of DCMU) is recorded as “decreased nearly two-fold”. Regarding `CC[C@H]1/C=C/C=C/C[C@@H](C)[C@H](O)[C@@](C)(O)C(=O)[C@@H](C)[C@H](O)[C@@H](C)C(=O)[C@@H](C)[C@H](O)[C@@H](C)/C=C/C(=O)O[C@@H]2[C@H](C)[C@H](CC1)O[C@]1(CC[C@H](C)[C@H](C[C@@H](C)O)O1)[C@H]2C` [oligomycin], under “paraoxon 0.25 mg/mL”, the “hydrolysis of paraoxon into p-nitrophenol with oligomycin and rotenone in the dark” value was “not hydrolyzed”. Still for that read-out and setting: the same measure for `C=C(C)[C@H]1Cc2c(ccc3c2O[C@@H]2COc4cc(OC)c(OC)cc4[C@@H]2C3=O)O1` [rotenone]: “not hydrolyzed”.

The record behind these values is patent publication US11485657B2, “Biological remediation of groundwater using an algal photobioreactor system” (priority 2019, dated 2022).
